Source: patent US8828997B2, “2,3-dihydro-1H-imidazo(1,2-a)pyrimidin-5-one derivatives, preparation thereof, and pharmaceutical use thereof” (Sanofi, priority 2009, dated 2014)

Tests used:
Assay type in all cases: cell-based
[1] = tested on: AKT protein phosphorylated on serine 473 (pAKT-S473) in PC3 human prostate carcinoma cells; experiment: pAKT expression in PC3 human prostate carcinoma cells measured by western blotting (test A); conditions: PC-3, 1 to 2 h incubation, absolute IC50
Procedure: The inhibitory activity of the molecules on AKT phosphorylation is measured either by western blotting using the technique described below, or by the MSD Multi-spot Biomarker detection technique from Meso Scale Discovery also described below.
Study of pAKT Expression in PC3 Human Prostate Carcinoma Cells Measured by Western Blotting (test A):
This test is based on measuring the expression of the AKT protein phosphorylated on serine 473. The phosphorylation of AKT (pAKT) is measured by western blotting in the PC3 human prostate carcinoma line (ATCC CRL-1435), using an antibody that specifically recognises pAKT-S473.
On day 1, the PC3 cells are seeded into 6-well plates (TPP, #92006) at the concentration of 0.8×10^6 cells/well in 1800 μl of DMEM medium (DMEM Gibco #11960-044) containing 10% of foetal calf serum (SVF Gibco, #10500-056) and 1% glutamine (L-Glu Gibco #25030-024), and incubated at 37° C., 5% CO2, overnight.
On day 2, the cells are incubated in the presence or absence of the test products for 1 to 2 hours at 37° C. in the presence of 5% CO2. The molecules, diluted in dimethyl sulphoxide (DMSO Sigma #D2650), are added from a 10-times concentrated stock solution, the final percentage of DMSO being 0.1%. The molecules are tested either at a single concentration of less than or equal to 10 μM, or at increasing concentrations in a range that can extend from less than 1 nM to 10 μM.
After this incubation, the cells are lysed for the preparation of the proteins. After the culture medium has been drawn off, the cells are rinsed with 1 ml of PBS (DPBS Gibco, #14190-094), recovered by scraping in 200 μl of complete HNTG buffer and transferred into a 96-well plate (Greiner #651201), and lysed for 1 h on ice. The HNTG buffer is composed of the following mixture: 50 mM hepes, 150 mM NaCl, 1% triton, 10% glycerol, with extemporaneous addition of one Mini Protease Inhibitor Cocktail tablet (Roche 1836153) and of one Phosphatase Inhibitor Cocktail tablet (Roche104906837001) per 10 ml of buffer.
The lysate is centrifuged for 10 min at 6000 rpm. 155 μl of supernatant are recovered. 150 μl are incubated for denaturation for 5 min at 95° C. in the presence of 4× NuPAGE LDS Sample Buffer diluted 4-fold (InVitrogen ref NP0007) and of 10× NuPAGE Sample Reducing Agent diluted 10-fold (InVitrogen ref NP0009). These samples are then frozen at −20° C. 5 μl are assayed by the microBCA technique according to the technical bulletin of the MicroBCA Protein Assay Kit (Pierce #23235).
For protein separation, 20 μg of proteins are loaded on to a NU-PAGE 4-12% Bis Tris Gel 12 well (InVitrogen ref NP0322BOX) and the migration is carried out for 1 h 30 in 20× NU-PAGE MOPS SDS Running Buffer diluted 20-fold (InVitrogen ref NP0001), at 150 volts.
The gel is then transferred on to an Invitrolon PVDF membrane (Invitrogen #LC2007) permeabilised before and after a few seconds in ethanol (Ethanol Fischer Scientific #E/0600DF/15).
The transfer is carried out in a Biorad tank at 30 volts overnight or at 60 volts for 3 hours, in the presence of 20× NUPAGE Transfer Buffer diluted 20-fold (InVitrogen ref NP0006).
The membrane is then saturated in saturating solution composed of TBS (10× Tris Buffered Saline, Sigma #T5912, diluted 10-fold), 0.1% Tween 20 (Sigma #P5927) and 3% BSA (Bovine Albumin Serum Fraction V, Sigma #A4503) for 6 h after overnight transfer or else for 1 h after transfer for a period of 3 h.
The primary antibodies are diluted to 1/1000 for the anti-phospho AKT-Ser473 antibody (1931-12, rabbit monoclonal, cat#4058 from Cell Signaling Technology Abcam), in saturating solution composed of PBS, 0.1% Tween 20 and 3% BSA, and then shaken overnight at 4° C.
Two rinses for 5 min in washing solution composed of TBS and 0.1% Tween 20 are carried out before hybridisation of the secondary antibodies. […]

[2] = tested on: translocation of the LC3 protein in Hela GFP-LC3 cells; experiment: Translocation of the LC3 protein in Hela human cells measured by image analysis cytometry (test C, autophagy); conditions: Homo sapiens, HeLa, 2 h, EBSS + 10 μM hydroxychloroquine, cells with LC3 granulations, absolute IC50
In short: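 HeLa clone stably expressing GFP-LC3, starved in EBSS with 10 μM hydroxychloroquine plus compound (10 nM to 1 μM range, 0.1% DMSO) for 2 h at 37 °C. After PFA fixation and Hoechst staining, LC3 translocation read by image analysis cytometry; IC50 from dose-response curves, mean of 2 independent experiments.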

[3] = tested on: P. falciparum (highly chloroquine-resistant strain Fcm29-Cameroon); experiment: Antimalarial activity test (radioactive micromethod of Desjardins, tritiated hypoxanthine incorporation); conditions: Plasmodium falciparum, Erythrocyte, infected human erythrocytes, 48 h
In short: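 P. falciparum cultured in infected human erythrocytes (2% haematocrit, 1.5% parasitaemia) in RPMI 1640 with 5% human serum and 1% DMSO, exposed to compound for 48 h at 37 °C, 5% CO2. Tritiated hypoxanthine added at 24 h; growth inhibition versus drug-free incorporation, reported as % at 1 μM and 0.1 μM.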

| Structure (SMILES) | IC50 [1] [nM] | IC50 [2] [nM] | inhibition at 0.1 µM [3] [%] | inhibition at 1 µM [3] [%] |
| --- | --- | --- | --- | --- |
| CC(Cc1ccccc1)N1c2nc(N3CCOCC3)cc(=O)n2C[C@@]1(C)C(F)(F)F (single isomer, unassigned) [Example 12, (2S)-2-Methyl-1-((R) or (S)-1-methyl-2-phenylethyl)-7-morpholin-4-yl-2-trifluoromethyl-2,3-dihydro-1H-imidazo[1,2-a]pyrimidin-5-one] | 77 | 194 |  |  |
| C[C@@]1(C(F)(F)F)Cn2c(nc(N3CCOCC3)cc2=O)N1Cc1ccccc1 [Example 3, (S)-1-Benzyl-2-methyl-7-morpholin-4-yl-2-trifluoromethyl-2,3-dihydro-1H-imidazo[1,2-a]pyrimidin-5-one] | 634 | 493 | 15 | 95 |
| C[C@@]1(C(F)(F)F)Cn2c(nc(N3CCOCC3)cc2=O)N1CCc1ccccc1 [Example 4, (S)-2-Methyl-7-morpholin-4-yl-1-phenethyl-2-trifluoromethyl-2,3-dihydro-1H-imidazo[1,2-a]pyrimidin-5-one] | 25 | 107 | 54 | 97 |
| C[C@@]1(C(F)(F)F)Cn2c(nc(N3CCOCC3)cc2=O)N1CCCc1ccccc1 [Example 5, (S)-2-Methyl-7-morpholin-4-yl-1-(3-phenylpropyl)-2-trifluoromethyl-2,3-dihydro-1H-imidazo[1,2-a]pyrimidin-5-one] | 30 | 73 |  |  |
| C[C@@]1(C(F)(F)F)Cn2c(nc(N3CCOCC3)cc2=O)N1CCOc1ccccc1 [Example 6, (S)-2-Methyl-7-morpholin-4-yl-1-(2-phenoxyethyl)-2-trifluoromethyl-2,3-dihydro-1H-imidazo[1,2-a]pyrimidin-5-one] | 1640 | 81 |  |  |
| C[C@@H](CN1c2nc(N3CCOCC3)cc(=O)n2C[C@@]1(C)C(F)(F)F)c1ccccc1 [Example 8, (S)-2-Methyl-7-morpholin-4-yl-1-((R)-2-phenylpropyl)-2-trifluoromethyl-2,3-dihydro-1H-imidazo[1,2-a]pyrimidin-5-one] | 15 | 13 |  |  |
| C[C@@]1(C(F)(F)F)Cn2c(nc(N3CCOCC3)cc2=O)N1C[C@@H](O)c1ccccc1 [Example 10] | 16 | 31 | 38 | 97 |
| C[C@@]1(C(F)(F)F)Cn2c(nc(N3CCOCC3)cc2=O)N1CCc1ccc(N2CCOCC2)cc1 [Example 15, (S)-2-Methyl-7-morpholin-4-yl-1-[2-(4-morpholin-4-ylphenyl)ethyl]-2-trifluoromethyl-2,3-dihydro-1H-imidazo[1,2-a]pyrimidin-5-one] | 121 | 72 | 39 | 101 |
